The numbers were not newly measured in article PMC3466449 (Scientific Reports, 2012), which cites them from elsewhere.

Non-standard residues stand in square brackets, D forms with d. No end group written: not given here. pGlu = O=C1CC[C@@H](C(=O)O)N1

The subject of this data set is C-domain of sACE. To be noted: C-domain over N-domain of sACE.

Regarding `O=C(N[C@@H](Cc1ccccc1)P(=O)(O)C1CCCC1C(=O)N[C@@H](Cc1c[nH]c2ccccc12)C(=O)O)OCc1ccccc1` (some centres unmarked) [RXPA380], the C-domain selectivity entry is reported as “approximately 3000 fold”.

For “[pGlu]GLPPRPKIPP [BPPb, bradykinin potentiating peptide b]”, the C-domain selectivity entry was “about 260 fold”.
